“And” between values parts separate entries of the source, which are not always exact repeats. Equal values may be shown once. Inconclusive results and toxic doses are left out. Cut-off read from the data, not from the text of the source: active = T/C of 150% or more; inactive = T/C below 125%.
System: L1210 leukemia ip in BDF1 mice, survival T/C
Assay: NCI In Vivo Anticancer Drug Screen. Data for tumor model L1210 Leukemia (intraperitoneal) in B6D2F1 (BDF1) mice
Conditions: endpoint: mean survival time, higher = longer survival
Procedure, shortened: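 In this screen, tumor-bearing mice given compound are compared to those given vehicle, and their survival values are reported as a treated-to-control quotient.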

[1] = dose: 50.0 mg/kg/injection, schedule: Q01DX009 (ip), vehicle: saline
[2] = dose: 100.0 mg/kg/injection, schedule: Q01DX009 (ip), vehicle: saline
[3] = dose: 100.0 mg/kg/injection, schedule: Q04DX003 (ip), vehicle: acetone
[4] = dose: 200.0 mg/kg/injection, schedule: Q04DX003 (ip), vehicle: acetone
[5] = dose: 50.0 mg/kg/injection, schedule: Q01DX001 (ip), vehicle: carboxymethylcellulose (CMC)
[6] = dose: 100.0 mg/kg/injection, schedule: Q01DX001 (ip), vehicle: carboxymethylcellulose (CMC)
[7] = dose: 200.0 mg/kg/injection, schedule: Q01DX001 (ip), vehicle: carboxymethylcellulose (CMC)
[8] = dose: 400.0 mg/kg/injection, schedule: Q01DX001 (ip), vehicle: carboxymethylcellulose (CMC)
[9] = dose: 100.0 mg/kg/injection, schedule: Q04DX003 (ip), vehicle: saline
[10] = dose: 200.0 mg/kg/injection, schedule: Q04DX003 (ip), vehicle: saline
[11] = dose: 25.0 mg/kg/injection, schedule: Q01DX009 (ip), vehicle: saline
[12] = dose: 25.0 mg/kg/injection, schedule: Q04DX003 (ip), vehicle: saline
[13] = dose: 100.0 mg/kg/injection, schedule: Q01DX009 (ip), vehicle: acetone
[14] = dose: 100.0 mg/kg/injection, schedule: Q04DX003 (ip), vehicle: saline with Tween-80
[15] = dose: 200.0 mg/kg/injection, schedule: Q04DX003 (ip), vehicle: saline with Tween-80
[16] = dose: 400.0 mg/kg/injection, schedule: Q04DX003 (ip), vehicle: saline with Tween-80
[17] = dose: 100.0 mg/kg/injection, schedule: Q01DX009 (ip), vehicle: Klucel (hydroxypropylcellulose) (HPC)
[18] = dose: 200.0 mg/kg/injection, schedule: Q01DX009 (ip), vehicle: Klucel (hydroxypropylcellulose) (HPC)
[19] = dose: 100.0 mg/kg/injection, schedule: Q04DX003 (ip), vehicle: Klucel (hydroxypropylcellulose) (HPC)
[20] = dose: 200.0 mg/kg/injection, schedule: Q04DX003 (ip), vehicle: Klucel (hydroxypropylcellulose) (HPC)
[21] = dose: 400.0 mg/kg/injection, schedule: Q04DX003 (ip), vehicle: Klucel (hydroxypropylcellulose) (HPC)
[22] = dose: 50.0 mg/kg/injection, schedule: Q04DX002 (ip), vehicle: Klucel (hydroxypropylcellulose) (HPC)
[23] = dose: 100.0 mg/kg/injection, schedule: Q04DX002 (ip), vehicle: Klucel (hydroxypropylcellulose) (HPC)
[24] = dose: 200.0 mg/kg/injection, schedule: Q04DX002 (ip), vehicle: Klucel (hydroxypropylcellulose) (HPC)
[25] = dose: 50.0 mg/kg/injection, schedule: Q01DX001 (ip), vehicle: saline
[26] = dose: 100.0 mg/kg/injection, schedule: Q01DX001 (ip), vehicle: saline
[27] = dose: 200.0 mg/kg/injection, schedule: Q01DX001 (ip), vehicle: saline
[28] = dose: 400.0 mg/kg/injection, schedule: Q01DX001 (ip), vehicle: saline
[29] = dose: 400.0 mg/kg/injection, schedule: Q01DX009 (ip), vehicle: Klucel (hydroxypropylcellulose) (HPC)

Measured: T/C

Cc1nc(C(=O)O)cs1
inactive: [1] 95 % of control | dose: 50.0 mg/kg/injection, schedule: Q04DX003 (ip), vehicle: acetone 90 % of control | dose: 100.0 mg/kg/injection, schedule: Q01DX001 (ip), vehicle: acetone 98 % of control | [2] 92 % of control | [3] 92 % of control | dose: 200.0 mg/kg/injection, schedule: Q01DX001 (ip), vehicle: acetone 102 % of control | [4] 95 % of control

Cc1cc(N(CCCl)CCCl)ccc1C=NCCCCN=Cc1ccc(N(CCCl)CCCl)cc1C
inactive: [5] 104 % of control | [6] 106 % of control | [7] 101 % of control | [8] 101 % of control

O=C1OCC/C1=C\c1cccc(/C=C2\CCOC2=O)c1
inactive: dose: 25.0 mg/kg/injection, schedule: Q04DX002 (ip), vehicle: saline with Tween-80 92 % of control | dose: 50.0 mg/kg/injection, schedule: Q04DX002 (ip), vehicle: saline with Tween-80 95 % of control | dose: 100.0 mg/kg/injection, schedule: Q04DX002 (ip), vehicle: saline with Tween-80 106 % of control | dose: 200.0 mg/kg/injection, schedule: Q04DX002 (ip), vehicle: saline with Tween-80 100 % of control

O=C(NC(CSC(c1ccccc1)(c1ccccc1)c1ccccc1)C(=O)O)OCc1ccccc1 (centres undefined)
inactive: [9] 105 % of control | [10] 100 % of control | dose: 400.0 mg/kg/injection, schedule: Q04DX003 (ip), vehicle: saline 105 % of control

CCCC(N=Cc1ccccc1O)C(=O)O.CCCC(N=Cc1ccccc1O)C(=O)O.[Fe] (centres undefined)
inactive: [11] 95 % of control | [12] 98 % of control | [1] 93 % of control | dose: 50.0 mg/kg/injection, schedule: Q04DX003 (ip), vehicle: saline 98 % of control | [9] 96 % of control and 98 % of control

CN1N=Nc2cccc3cccc1c23
inactive: dose: 50.0 mg/kg/injection, schedule: Q01DX009 (ip), vehicle: acetone 112 % of control | [13] 107 % of control | [3] 94 % of control | [4] 87 % of control

CCN(CC)CCN1C(=O)C2CCCCC2C1=O (centres undefined)
inactive: [14] 101 % of control | [15] 101 % of control | [16] 97 % of control

CN(C)c1ccc(/C=N/NC(=O)C2CCCO2)c(Cl)c1 (centres undefined)
inactive: [17] 102 % of control | [18] 98 % of control

C/C(CC(O)(C(F)(F)Cl)C(F)(F)Cl)=N\O
inactive: dose: 100.0 mg/kg/injection, schedule: Q01DX009 (ip), vehicle: saline with Tween-80 92 % of control | [14] 107 % of control | dose: 200.0 mg/kg/injection, schedule: Q01DX009 (ip), vehicle: saline with Tween-80 97 % of control | [15] 93 % of control | [16] 93 % of control

C/C=C/C[n+]1cccc2ccccc21
inactive: dose: 6.25 mg/kg/injection, schedule: Q01DX009 (ip), vehicle: saline 92 % of control | dose: 6.25 mg/kg/injection, schedule: Q04DX003 (ip), vehicle: saline 98 % of control | dose: 12.5 mg/kg/injection, schedule: Q01DX009 (ip), vehicle: saline 95 % of control | dose: 12.5 mg/kg/injection, schedule: Q04DX003 (ip), vehicle: saline 101 % of control | [11] 100 % of control | [12] 101 % of control

Cc1cccc(SC(=O)Nc2ccccc2C(F)(F)F)c1
inactive: dose: 25.0 mg/kg/injection, schedule: Q01DX009 (ip), vehicle: Klucel (hydroxypropylcellulose) (HPC) 103 % of control | dose: 50.0 mg/kg/injection, schedule: Q01DX009 (ip), vehicle: Klucel (hydroxypropylcellulose) (HPC) 94 % of control | [17] 97 % of control and 102 % of control | [19] 98 % of control | [20] 109 % of control | [21] 93 % of control

CSCCC(NC(=O)c1ccccc1)C(=O)O (centres undefined)
inactive: [19] 94 % of control | [20] 92 % of control | [21] 94 % of control

CC(=O)Nc1ccc(Br)cc1[N+](=O)[O-]
inactive: [13] 92 % of control | dose: 200.0 mg/kg/injection, schedule: Q01DX009 (ip), vehicle: acetone 106 % of control | dose: 400.0 mg/kg/injection, schedule: Q01DX009 (ip), vehicle: acetone 101 % of control

Cc1ccc(S(=O)(=O)N/N=C2/CC3CCCCCCC23)cc1 (centres undefined)
inactive: [22] 104 % of control | [23] 97 % of control | [24] 111 % of control

O=[N+]([O-])c1ccc(O)cc1/C=N/Nc1nnc(N/N=C/c2cc(O)ccc2[N+](=O)[O-])c2ccccc12
inactive: [25] 98 % of control | [26] 98 % of control | [27] 98 % of control | [28] 102 % of control

CS(=O)(=O)Nc1nc2ccccc2[nH]1
inactive: [1] 96 % of control | [2] 93 % of control | dose: 200.0 mg/kg/injection, schedule: Q01DX009 (ip), vehicle: saline 86 % of control

C=COC1CCCCC1
inactive: [17] 101 % of control | [19] 97 % of control | [18] 100 % of control | [20] 90 % of control | [29] 95 % of control | [21] 88 % of control

COc1ccc(C2OCC(c3ccccc3)O2)cc1 (centres undefined)
inactive: dose: 222.0 mg/kg/injection, schedule: Q01DX Z (ip), vehicle: methylcellulose (MC) 93 % of control | dose: 500.0 mg/kg/injection, schedule: Q01DX Z (ip), vehicle: methylcellulose (MC) 93 % of control

O=c1[nH]c2cc(Cl)cc([N+](=O)[O-])c2c2c(Cl)cc(Cl)cc12
inactive: [17] 100 % of control | [19] 95 % of control | [18] 101 % of control | [20] 97 % of control | [29] 104 % of control | [21] 92 % of control

O=C(O)c1ccccc1C(=O)Nc1ccccc1Cl
inactive: [14] 96 % of control | [15] 102 % of control | [16] 102 % of control

CCCCCCCCSP(=S)(N1CC1)N1CC1
inactive: [25] 102 % of control | [26] 108 % of control | [27] 98 % of control | [28] 96 % of control

O=C(OCc1ccccc1CN1CCCCC1)c1ccc(Cl)cc1
inactive: dose: 25.0 mg/kg/injection, schedule: Q04DX002 (ip), vehicle: Klucel (hydroxypropylcellulose) (HPC) 102 % of control | [22] 105 % of control | [23] 107 % of control

BrCC1COc2ccccc2O1 (centres undefined)
inactive: [6] 100 % of control | [7] 100 % of control | [8] 91 % of control

CC1CN1P1(=O)OCC(C)([N+](=O)[O-])CO1 (centres undefined)
inactive: [5] 106 % of control | [6] 110 % of control | [7] 104 % of control | [8] 112 % of control

Clc1ccc(Oc2nc3c(Cl)cccc3s2)cc1Cl
inactive: [23] 101 % of control | [24] 101 % of control | dose: 400.0 mg/kg/injection, schedule: Q04DX002 (ip), vehicle: Klucel (hydroxypropylcellulose) (HPC) 97 % of control

COC1c2cnc(C)n2C=CN1C(C)=O (centres undefined)
inactive: [11] 102 % of control | [1] 100 % of control | [2] 91 % of control | [9] 108 % of control | [10] 98 % of control

O=C(CC(NC(=O)OCc1ccccc1)C(=O)OCc1ccccc1)OCc1ccccc1 (centres undefined)
inactive: [18] 88 % of control | [29] 89 % of control

CCOc1ccc(C(C)CC(=O)NN)c(O)c1 (centres undefined)
inactive: dose: 75.0 mg/kg/injection, schedule: Q01DX001 (ip), vehicle: saline with Tween-80 95 % of control | dose: 150.0 mg/kg/injection, schedule: Q01DX001 (ip), vehicle: saline with Tween-80 98 % of control | dose: 300.0 mg/kg/injection, schedule: Q01DX001 (ip), vehicle: saline with Tween-80 101 % of control
